Results: ChEMBL document CHEMBL1201862, “PubChem BioAssay data set” (2004)
The source made the active and inactive calls.

Tests used:
[1] = molecular target: Induced myeloid leukemia cell differentiation protein Mcl-1 (Homo sapiens, UniProt Q07820); format: functional
HEK293 [2] = experiment: cells; conditions: Homo sapiens
[3] = HIV-1 AD8 envelope cell-cell fusion blockers – cherry-pick, dose response (AID 652062); format: functional, cell-based;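 further: luciferase signal from cell-cell fusion driven by HIV-1 clade B AD8 Env; potency is for inhibitors of fusion seen as a drop in luminescence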
[4] = blockers of HIV-1 ZM109 envelope-driven cell-cell fusion – HeLa effector, CEM target cells, luciferase, cherry-pick, dose response (AID 652058); format: functional, cell-based;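 further: luciferase signal from HIV-1 Env mediated cell-cell fusion of effector and target cells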
Vero = experiment: cells; format: functional; conditions: Chlorocebus sabaeus
HEK293 [5] = experiment: cells; conditions: Homo sapiens; remark: listed apart in the source
[6] = molecular target: T1, Polyadenylate-binding protein 1 (Homo sapiens, UniProt P11940); experiment: MLLE binding blockers, Cy5 peptide tracer – biochemical, fluorescence polarization, Cy5-PAM2 peptide, secondary, miRNA deadenylation inhibitor project, dose response (AID 602260); format: functional; conditions: read-out: IC50_Mean
T1 sequence (P11940 whole entry, the tested form may be a part): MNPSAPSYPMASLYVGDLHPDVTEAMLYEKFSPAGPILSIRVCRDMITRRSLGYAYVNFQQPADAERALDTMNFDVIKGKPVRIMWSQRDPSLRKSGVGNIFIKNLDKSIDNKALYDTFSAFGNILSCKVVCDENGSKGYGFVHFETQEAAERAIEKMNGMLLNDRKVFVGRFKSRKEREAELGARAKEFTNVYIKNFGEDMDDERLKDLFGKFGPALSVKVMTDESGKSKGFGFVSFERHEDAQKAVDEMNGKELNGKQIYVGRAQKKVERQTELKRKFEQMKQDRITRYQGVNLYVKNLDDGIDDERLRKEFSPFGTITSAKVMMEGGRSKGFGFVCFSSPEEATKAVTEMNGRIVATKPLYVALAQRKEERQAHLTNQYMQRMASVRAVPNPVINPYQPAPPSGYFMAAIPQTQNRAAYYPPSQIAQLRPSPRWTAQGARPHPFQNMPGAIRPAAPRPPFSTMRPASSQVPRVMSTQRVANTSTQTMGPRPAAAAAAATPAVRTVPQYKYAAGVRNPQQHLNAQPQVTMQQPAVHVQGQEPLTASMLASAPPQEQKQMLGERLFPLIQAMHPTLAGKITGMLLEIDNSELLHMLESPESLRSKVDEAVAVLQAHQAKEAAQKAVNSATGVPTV

[7] = blockers of HIV-1 envelope-mediated cell-cell fusion – cherry-pick, dose response (AID 652057); format: functional, cell-based
[8] = off-target signal loss in HeLa-CEM21 co-culture – HeLa F-luc CTL cells, cherry-picked, counter-screen for HIV-1 Env fusion inhibitor project, dose response (AID 652040); format: functional, cell-based;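 further: potency for signal decrease marking cytotoxic or nonspecific inhibition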
[9] = viability loss in CEM21 cells – cell-based, CellTiter-Glo luminescence, cherry-picked, cytotoxicity control for viral fusion inhibitor project, dose response (AID 652042); format: functional;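 further: potency for signal decrease meaning cytotoxicity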
[10] = molecular target: T1, Polyadenylate-binding protein 1; experiment: MLLE domain peptide-binding blockers, IC50 – biochemical, fluorescence polarization, FITC-PAM2 peptide, dose response (AID 602259); format: functional; conditions: read-out: IC50_Mean
Cytochrome P450 2D6 = Cytochrome P450 2D6 (Homo sapiens, UniProt P10635);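 further: CYP2D6 member of a cytochrome P450 panel assay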
[11] = molecular target: T2, Tyrosine-protein phosphatase non-receptor type 7 (Homo sapiens, UniProt P35236); experiment: HePTP tyrosine phosphatase activity blockers – biochemical, absorbance, leukemia target, primary screen (AID 521); format: functional
T2 sequence (P35236 whole entry): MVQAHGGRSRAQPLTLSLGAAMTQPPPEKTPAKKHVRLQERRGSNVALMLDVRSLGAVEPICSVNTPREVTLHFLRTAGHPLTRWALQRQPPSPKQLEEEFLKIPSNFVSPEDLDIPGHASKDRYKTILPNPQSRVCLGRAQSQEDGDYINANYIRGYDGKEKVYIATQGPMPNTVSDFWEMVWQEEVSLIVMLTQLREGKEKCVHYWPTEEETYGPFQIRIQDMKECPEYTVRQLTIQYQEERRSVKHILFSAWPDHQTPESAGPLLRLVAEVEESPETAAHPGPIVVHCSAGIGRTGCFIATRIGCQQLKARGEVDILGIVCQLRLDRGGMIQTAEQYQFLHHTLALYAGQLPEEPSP

[12] = viability loss in MITF-independent A375 cells – cell-based, CellTiter-Glo luminescence, dry powder, set 2, counter-screen for MITF inhibitor project, dose response (AID 624489); format: functional; conditions: A-375;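 further: actives are compounds lowering A375 viability meaning general cytotoxicity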
[13] = molecular target: T3, Microphthalmia-associated transcription factor (Homo sapiens, UniProt O75030); experiment: reducers of TRPM1 reporter luminescence, concentration series – cell-based, SK-MEL-5, cherry-picked, set 3, MITF inhibitor project, dose response (AID 493073); format: functional;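 further: SK-MEL-5 melanoma cells with luciferase driven by the MITF target TRPM1 promoter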
T3 sequence (O75030 whole entry): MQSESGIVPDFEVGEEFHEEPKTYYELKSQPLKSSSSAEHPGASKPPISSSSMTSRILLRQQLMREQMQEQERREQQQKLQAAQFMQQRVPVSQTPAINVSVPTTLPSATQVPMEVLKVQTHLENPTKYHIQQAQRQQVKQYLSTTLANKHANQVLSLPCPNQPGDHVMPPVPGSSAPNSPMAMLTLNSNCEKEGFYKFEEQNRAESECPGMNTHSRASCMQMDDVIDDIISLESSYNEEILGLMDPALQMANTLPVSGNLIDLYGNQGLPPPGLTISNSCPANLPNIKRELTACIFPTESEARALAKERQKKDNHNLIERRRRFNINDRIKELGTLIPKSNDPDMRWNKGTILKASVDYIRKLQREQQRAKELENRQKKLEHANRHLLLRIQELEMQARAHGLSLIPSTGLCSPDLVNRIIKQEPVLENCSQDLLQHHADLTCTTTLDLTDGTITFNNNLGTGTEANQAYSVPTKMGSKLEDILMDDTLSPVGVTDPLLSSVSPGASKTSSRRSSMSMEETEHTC

INS1 = experiment: INS-1E survival protection against cytokine death – cell-based, luminescence, retest, dose response (AID 449756); format: functional; conditions: Rattus norvegicus;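 further: cell death triggered by IL-1 beta plus TNF-alpha plus IFN-gamma mixture; protective hits raise ATP signal compared with cytokine alone wells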
[14] = molecular target: T4, Disintegrin and metalloproteinase domain-containing protein 17 (Homo sapiens, UniProt P78536); experiment: exosite inhibitors of ADAM17, dose response, biochemical (AID 743260)
T4 sequence (P78536 whole entry, the tested form may be a part): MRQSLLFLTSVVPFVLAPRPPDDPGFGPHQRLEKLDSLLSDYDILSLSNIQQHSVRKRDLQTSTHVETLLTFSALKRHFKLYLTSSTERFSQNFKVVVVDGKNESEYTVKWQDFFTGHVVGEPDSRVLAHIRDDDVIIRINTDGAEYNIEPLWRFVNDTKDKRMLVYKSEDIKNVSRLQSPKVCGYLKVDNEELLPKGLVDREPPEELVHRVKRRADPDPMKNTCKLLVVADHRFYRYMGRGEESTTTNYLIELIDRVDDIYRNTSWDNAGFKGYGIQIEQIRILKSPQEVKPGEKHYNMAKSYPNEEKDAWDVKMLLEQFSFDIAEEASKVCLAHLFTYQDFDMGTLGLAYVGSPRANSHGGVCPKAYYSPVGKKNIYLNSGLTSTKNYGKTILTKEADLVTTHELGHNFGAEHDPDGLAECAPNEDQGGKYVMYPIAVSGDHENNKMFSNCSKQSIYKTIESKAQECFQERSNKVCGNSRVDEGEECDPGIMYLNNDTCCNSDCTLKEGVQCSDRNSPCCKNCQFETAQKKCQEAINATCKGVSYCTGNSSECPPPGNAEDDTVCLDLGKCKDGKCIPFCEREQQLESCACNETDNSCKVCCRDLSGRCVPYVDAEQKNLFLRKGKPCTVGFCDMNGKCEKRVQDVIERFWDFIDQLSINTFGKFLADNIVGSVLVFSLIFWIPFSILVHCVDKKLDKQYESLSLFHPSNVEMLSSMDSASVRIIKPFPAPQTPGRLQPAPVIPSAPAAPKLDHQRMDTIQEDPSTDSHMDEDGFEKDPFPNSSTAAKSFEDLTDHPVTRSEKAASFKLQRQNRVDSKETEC

[15] = inhibition of ADAM10 peptide cleavage – biochemical, FRET peptide substrate, recombinant human ADAM10, selectivity assay for ADAM17 exosite inhibitor project, dose response (AID 743259);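 further: ADAM10 enzyme cleaving a FRET peptide substrate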
[16] = reduced cellular PGC1a acetyl-lysine signal – cell-based, cherry-picked samples, dose response (AID 720514); format: functional;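 further: potency may reflect raised or lowered acetylation signal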
[17] = viability of PTEN-deleted HCT116 cells – cell-based, HCT116 PTEN knockout, dose response (AID 1047); format: functional;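 further: HCT116 colon tumor cells with PTEN knocked out; cells exposed to compound for 60 hours before readout; potency for loss of cell viability measured by luminescence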
[18] = viability of HCT116 lacking mutant beta-catenin – cell-based, human colon tumor, dose response (AID 1045); format: functional;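 further: HCT116 colon tumor cells with beta catenin knocked out; cells exposed to compound for 60 hours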
Estrogen receptor beta = Estrogen receptor beta (Homo sapiens, UniProt Q92731);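 further: recombinant ER-beta bound to coactivator SRC1 peptide in presence of estradiol agonist; inhibitors block coactivator peptide binding and lower the FRET signal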
[19] = HIV-1 Vif–A3G interaction blockers – biochemical, TR-FRET, GST-Vif 1-94, biotin-A3G peptide, dose response retest, primary screen (AID 1117319); format: functional;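 further: TR-FRET signal of purified GST-Vif binding a biotinylated A3G peptide; inhibitors lower the FRET signal by blocking Vif and A3G binding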
[20] = molecular target: T5, Rac GTPase-activating protein 1 (Homo sapiens, UniProt Q9H0H5); experiment: blockers of MgcRacGAP-driven Rac1 GTP hydrolysis – biochemical, ADP Hunter fluorescence, primary and confirmatory, confirmation (AID 624330); format: functional
T5 sequence (Q9H0H5 whole entry): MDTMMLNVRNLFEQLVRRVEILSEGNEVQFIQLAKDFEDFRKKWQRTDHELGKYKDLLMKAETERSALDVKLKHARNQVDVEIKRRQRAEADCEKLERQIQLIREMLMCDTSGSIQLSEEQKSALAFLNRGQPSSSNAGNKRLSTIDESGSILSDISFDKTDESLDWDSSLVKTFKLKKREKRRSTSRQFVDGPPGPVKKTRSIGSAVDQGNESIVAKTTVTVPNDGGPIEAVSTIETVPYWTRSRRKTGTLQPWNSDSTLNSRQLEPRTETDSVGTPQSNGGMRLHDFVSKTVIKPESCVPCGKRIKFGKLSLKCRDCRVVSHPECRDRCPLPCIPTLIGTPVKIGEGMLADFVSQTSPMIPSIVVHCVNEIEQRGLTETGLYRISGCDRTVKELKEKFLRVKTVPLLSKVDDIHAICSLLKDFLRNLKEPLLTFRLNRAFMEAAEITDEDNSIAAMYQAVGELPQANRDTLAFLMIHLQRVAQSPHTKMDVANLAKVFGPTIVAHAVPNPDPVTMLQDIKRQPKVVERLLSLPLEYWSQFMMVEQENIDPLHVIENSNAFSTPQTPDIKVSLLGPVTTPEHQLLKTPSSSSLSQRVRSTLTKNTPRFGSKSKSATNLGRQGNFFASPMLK

[21] = molecular target: NAD-dependent protein deacylase sirtuin-5, mitochondrial (Homo sapiens, UniProt Q9NXA8); experiment: sirtuin-5 deacylation blockers, concentration series – biochemical, fluorescence imaging, cherry-pick, set 5, dose response (AID 720591);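 further: desuccinylation of succinyl peptide AMC substrate read as fluorescence after trypsin release; potency of inhibitors that lower fluorescence and may act on trypsin instead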
Sequence of NAD-dependent protein deacylase sirtuin-5, mitochondrial (Q9NXA8 whole entry, the tested form may be a part): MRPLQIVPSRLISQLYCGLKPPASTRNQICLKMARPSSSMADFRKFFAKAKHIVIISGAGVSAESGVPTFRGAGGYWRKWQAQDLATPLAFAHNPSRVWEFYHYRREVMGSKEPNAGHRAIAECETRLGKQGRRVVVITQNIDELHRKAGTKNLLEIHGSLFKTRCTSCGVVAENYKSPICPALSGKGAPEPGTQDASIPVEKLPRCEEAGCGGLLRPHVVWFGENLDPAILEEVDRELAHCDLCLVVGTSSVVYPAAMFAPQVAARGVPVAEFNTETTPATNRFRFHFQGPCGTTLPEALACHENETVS

[22] = molecular target: T4, Disintegrin and metalloproteinase domain-containing protein 17; experiment: inhibition of ADAM17 substrate cleavage – biochemical, quenched FRET substrate, counter-screen for ADAM10 exosite inhibitor project, dose response (AID 743253)
Fatty acid synthase [23] = molecular target: T6, Fatty acid synthase (Homo sapiens, UniProt P49327); experiment: inhibition of human FAS-TE enzyme activity – biochemical, endpoint fluorescence intensity, uHTS hits, dose response (AID 624327); format: functional;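 further: fluorescence from hydrolysis of an O-methyl fluorescein acyl ester substrate by the enzyme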
T6 sequence (P49327 whole entry): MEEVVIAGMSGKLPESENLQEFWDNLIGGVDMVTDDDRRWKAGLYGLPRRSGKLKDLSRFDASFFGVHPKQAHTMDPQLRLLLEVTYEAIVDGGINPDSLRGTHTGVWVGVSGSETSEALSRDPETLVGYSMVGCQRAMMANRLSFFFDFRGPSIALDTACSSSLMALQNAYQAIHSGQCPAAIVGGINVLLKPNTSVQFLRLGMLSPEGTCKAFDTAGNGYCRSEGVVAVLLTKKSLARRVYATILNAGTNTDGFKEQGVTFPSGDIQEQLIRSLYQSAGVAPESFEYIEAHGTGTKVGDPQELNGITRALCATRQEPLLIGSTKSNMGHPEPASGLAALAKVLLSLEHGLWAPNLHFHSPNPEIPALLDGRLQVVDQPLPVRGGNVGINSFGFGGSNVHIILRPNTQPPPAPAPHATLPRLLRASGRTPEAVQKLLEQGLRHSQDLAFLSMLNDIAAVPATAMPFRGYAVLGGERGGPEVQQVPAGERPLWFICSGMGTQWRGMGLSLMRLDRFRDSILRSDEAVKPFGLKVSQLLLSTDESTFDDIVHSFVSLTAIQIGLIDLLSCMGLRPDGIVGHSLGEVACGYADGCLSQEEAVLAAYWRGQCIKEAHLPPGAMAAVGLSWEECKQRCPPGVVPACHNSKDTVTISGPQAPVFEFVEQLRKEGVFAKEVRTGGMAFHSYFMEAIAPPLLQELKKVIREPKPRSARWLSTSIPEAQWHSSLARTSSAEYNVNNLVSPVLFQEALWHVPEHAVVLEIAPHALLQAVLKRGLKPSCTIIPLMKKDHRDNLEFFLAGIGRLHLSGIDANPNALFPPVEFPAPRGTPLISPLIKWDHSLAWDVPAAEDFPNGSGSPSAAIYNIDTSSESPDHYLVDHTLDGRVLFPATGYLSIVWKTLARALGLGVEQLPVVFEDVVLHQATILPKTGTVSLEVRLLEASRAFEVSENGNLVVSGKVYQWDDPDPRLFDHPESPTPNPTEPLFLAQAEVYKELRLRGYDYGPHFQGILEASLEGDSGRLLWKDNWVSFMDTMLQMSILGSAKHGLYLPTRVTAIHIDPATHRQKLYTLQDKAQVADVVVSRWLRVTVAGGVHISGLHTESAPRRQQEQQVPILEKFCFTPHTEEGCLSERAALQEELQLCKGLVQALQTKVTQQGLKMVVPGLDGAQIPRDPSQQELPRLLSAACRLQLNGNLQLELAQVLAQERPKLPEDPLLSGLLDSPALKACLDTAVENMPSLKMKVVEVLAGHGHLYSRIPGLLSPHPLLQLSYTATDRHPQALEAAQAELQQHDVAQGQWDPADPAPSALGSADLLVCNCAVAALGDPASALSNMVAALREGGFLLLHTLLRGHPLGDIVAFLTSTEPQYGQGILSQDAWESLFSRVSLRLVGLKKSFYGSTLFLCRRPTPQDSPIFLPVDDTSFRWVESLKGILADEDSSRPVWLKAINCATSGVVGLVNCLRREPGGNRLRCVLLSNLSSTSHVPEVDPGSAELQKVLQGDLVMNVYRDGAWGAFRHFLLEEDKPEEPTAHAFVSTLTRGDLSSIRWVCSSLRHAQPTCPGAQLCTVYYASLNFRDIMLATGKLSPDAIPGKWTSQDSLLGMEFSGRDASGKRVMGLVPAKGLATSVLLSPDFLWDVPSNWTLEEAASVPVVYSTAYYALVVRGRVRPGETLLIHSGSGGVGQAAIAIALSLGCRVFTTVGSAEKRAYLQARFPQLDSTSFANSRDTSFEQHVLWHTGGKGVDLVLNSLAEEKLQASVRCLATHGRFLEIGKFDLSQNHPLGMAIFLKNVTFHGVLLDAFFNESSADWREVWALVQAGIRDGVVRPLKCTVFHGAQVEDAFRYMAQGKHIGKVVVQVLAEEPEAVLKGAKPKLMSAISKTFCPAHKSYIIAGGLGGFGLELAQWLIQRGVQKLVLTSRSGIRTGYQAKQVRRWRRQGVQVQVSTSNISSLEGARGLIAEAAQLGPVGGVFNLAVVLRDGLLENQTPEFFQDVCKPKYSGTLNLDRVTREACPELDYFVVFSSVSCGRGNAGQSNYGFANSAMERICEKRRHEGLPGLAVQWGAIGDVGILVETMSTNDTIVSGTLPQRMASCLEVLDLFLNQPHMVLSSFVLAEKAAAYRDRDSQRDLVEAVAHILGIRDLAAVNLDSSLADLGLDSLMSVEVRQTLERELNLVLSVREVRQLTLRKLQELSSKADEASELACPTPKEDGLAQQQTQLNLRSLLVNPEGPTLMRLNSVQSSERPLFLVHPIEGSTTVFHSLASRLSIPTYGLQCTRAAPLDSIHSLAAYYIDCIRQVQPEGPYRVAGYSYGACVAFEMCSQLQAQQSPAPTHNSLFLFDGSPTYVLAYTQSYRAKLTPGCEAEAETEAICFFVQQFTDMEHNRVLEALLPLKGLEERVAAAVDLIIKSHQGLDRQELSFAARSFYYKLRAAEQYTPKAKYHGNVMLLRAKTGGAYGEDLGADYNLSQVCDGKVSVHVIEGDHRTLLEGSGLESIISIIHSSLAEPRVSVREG

Fatty acid synthase [24] = molecular target: T6, Fatty acid synthase; experiment: inhibition of human FAS-TE enzyme activity – biochemical, kinetic fluorescence intensity, dose response (AID 624326); format: functional;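 further: rate of fluorescence rise from hydrolysis of a fluorogenic O-methyl fluorescein ester substrate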
[25] = molecular target: T7, RNA-editing ligase 1, mitochondrial (Trypanosoma brucei brucei, UniProt P86926); experiment: inhibition of trypanosome RNA editing ligase – biochemical, fluorescence, Trypanosoma brucei, dose response (AID 1117295); format: functional
T7 sequence (P86926 whole entry): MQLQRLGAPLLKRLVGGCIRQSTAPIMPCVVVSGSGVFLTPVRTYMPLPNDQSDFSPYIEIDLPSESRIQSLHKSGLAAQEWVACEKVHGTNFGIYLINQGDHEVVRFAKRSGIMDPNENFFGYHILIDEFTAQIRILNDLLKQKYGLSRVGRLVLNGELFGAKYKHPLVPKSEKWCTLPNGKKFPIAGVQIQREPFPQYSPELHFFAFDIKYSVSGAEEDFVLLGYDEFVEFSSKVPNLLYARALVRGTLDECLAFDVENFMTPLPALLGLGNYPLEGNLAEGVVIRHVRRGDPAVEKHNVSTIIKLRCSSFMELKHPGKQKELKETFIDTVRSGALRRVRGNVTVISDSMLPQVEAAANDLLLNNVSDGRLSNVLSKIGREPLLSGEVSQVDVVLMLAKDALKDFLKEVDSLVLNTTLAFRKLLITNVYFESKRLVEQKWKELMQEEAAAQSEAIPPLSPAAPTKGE

Sequence of Induced myeloid leukemia cell differentiation protein Mcl-1 (Q07820 whole entry): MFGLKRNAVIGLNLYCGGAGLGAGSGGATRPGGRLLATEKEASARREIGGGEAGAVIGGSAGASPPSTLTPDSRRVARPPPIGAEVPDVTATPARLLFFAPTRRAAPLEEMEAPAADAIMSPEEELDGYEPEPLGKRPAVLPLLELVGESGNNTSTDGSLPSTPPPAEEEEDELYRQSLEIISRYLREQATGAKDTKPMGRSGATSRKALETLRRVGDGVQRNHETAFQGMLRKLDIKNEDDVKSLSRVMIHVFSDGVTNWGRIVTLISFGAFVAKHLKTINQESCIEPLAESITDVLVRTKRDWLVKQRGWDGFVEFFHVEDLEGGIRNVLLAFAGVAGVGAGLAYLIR

## CCOC(=O)c1c(CSc2ccc(C)cc2)n(C)c2cc(Br)c(O)c(CN(C)C)c12
[1]
  IC50: 2.7 µM (active)
HEK293 [2]
  EC50: > 59.6 µM (inactive)
[3]
  AC50: 1.32 µM (active)
[4]
  AC50: 0.465 µM (active)
Vero
  CC50: > 25 µM (active)
HEK293 [5]
  EC50: > 59.6 µM (inactive)
[6]
  IC50: > 66 µM (inactive)
[7]
  AC50: 0.342 µM (active)
[8]
  AC50: 0.452 µM (active)
[9]
  AC50: 58.8 µM (active)
[10]
  IC50: > 66 µM (inactive)

## Cc1ccc(C(=O)c2c[nH]nc2-c2cc(Cl)ccc2O)cc1
Cytochrome P450 2D6
  AC50: 28.2 µM (inconclusive)
[11]
  IC50: > 100 µM (not active)

## CN1CCN(C2=C(NS(=O)(=O)c3cccs3)C(=O)c3ccccc3C2=O)CC1
[12]
  AC50: > 70 µM (inactive)
[13]
  AC50: 6.98 µM (active)
INS1
  AC50: 5.87 µM (active)

## C=CCn1c(-c2csc3c2CCC(C)C3)n[nH]c1=S (centres undefined)
[14]
  IC50: > 69.4 µM (inactive)

## C=CCn1c(S)nnc1-c1csc2c1CCC(C)C2 (centres undefined)
[15]
  IC50: > 69.4 µM (inactive)

## CC(C)(C)n1nnnc1C(c1ccc(C#N)cc1)N1CCCC2(CCCCC2)C1 (centres undefined)
[11]
  IC50: > 100 µM (not active)

## O=C1CCCCC1C(Nc1ccc(Cl)cc1)c1ccccc1 (centres undefined)
[14]
  IC50: > 69.5 µM (inactive)
[15]
  IC50: 34.3 µM (inactive)

## Cc1ccccc1-n1nnnc1Sc1nnnn1-c1ccccc1
[16]
  AC50: 10.4 µM (active)
[17]
  EC50: 4.94 µM (active)
[18]
  EC50: 4.42 µM (active)

## CCc1cc2c(=O)n(CC)c(SC(C)C(=O)Nc3c(C)n(C)n(-c4ccccc4)c3=O)nc2s1 (centres undefined)
Estrogen receptor beta
  IC50: > 50 µM (not active)

## CCOc1ccc(C2NC(=O)C(C#N)=C(S)N2c2ccc(OC)cc2)cc1OC (centres undefined)
[19]
  IC50: > 100 µM (active)
[20]
  IC50: 134 µM (active)

## COc1ccc(OC)c(C2Nc3ccccc3N=C3CC(C)(C)CC(O)=C32)c1 (centres undefined)
[21]
  AC50: > 30 µM (inactive)

## COc1ccc(N2CCC(CN=C(S)Nc3cccc(OC)c3)C2)cc1 (centres undefined)
[15]
  IC50: > 69.5 µM (inactive)

## COc1ccc(N2CCC(CNC(=S)Nc3cccc(OC)c3)C2)cc1 (centres undefined)
[14]
  IC50: > 69.5 µM (inactive)

## CN(Cc1ccccc1)C(c1ccnc2ccccc12)c1nnnn1-c1ccc2c(c1)OCCO2 (centres undefined)
[21]
  AC50: 14.2 µM (active)

## CCN(CC)CCNc1ccnc2cc(Cl)ccc12
[11]
  IC50: > 100 µM (not active)

## Fc1c(F)c(C(F)(F)F)c(F)c(F)c1N/N=C\c1cccs1
[22]
  IC50: > 69.5 µM (inactive)
Fatty acid synthase [23]
  IC50: 10.4 µM (active)
[17]
  EC50: 109 µM (active)
[18]
  EC50: 43.1 µM (active)
Fatty acid synthase [24]
  IC50: 10.2 µM (active)

## COC(=O)C1=C(C)N(Cc2ccccc2C(F)(F)F)C(NCc2ccc3c(c2)OCO3)=NC1c1cccc(Cl)c1 (centres undefined)
[25]
  IC50: > 96.6 µM (inactive)

## COC(=O)C1=C(C)N(Cc2ccccc2C(F)(F)F)C(NCc2ccccc2)=NC1c1ccc(Cl)cc1 (centres undefined)
[25]
  IC50: > 96.6 µM (inactive)
